How the values were obtained:
[1] = tested on: HL-60; assay: HL-60 differentiation potency; assay type: cell-based; conditions: Homo sapiens
[2] = in vitro; conditions: human

SMILES	EC50 [1] [µM]	IC50 [2] [µM]	IC50 ([2]; HL-60 cells) [µM]
C[C@H]1[C@@H](OC[C@]2(F)CC[C@@H](C(=O)O)CC2)O[C@@H]2O[C@@]3(C)CC[C@H]4[C@H](C)CC[C@@H]1[C@@]24OO3 [Compound 200, (1R,4s)-4-fluoro-4-((((3R,5aS,6R,8aS, 9R,10S,12R, 12aR)-3,6,9-trimethyldeca-hydro-12H-3,12-epoxy[1,2]dioxepino[4,3-i]isochromen-10-yl)oxy)methyl) cyclohexane-1-carboxylic acid]	4.47	15.3	–
C[C@H]1[C@@H](O[C@H]2CC[C@@H](C(=O)N3CC(C(=O)O)C3)CC2)O[C@@H]2O[C@@]3(C)CC[C@H]4[C@H](C)CC[C@@H]1[C@@]24OO3 [Compound 259, 1-((1R,4s)-4-(((3R,5aS,6R,8aS, 9R,10S,12R, 12aR)-3,6,9-trimethyldeca-hydro-12H-3,12-epoxy[1,2]dioxepino[4,3-i]isochromen-10-yl)oxy)cyclo-hexane-1-carbonyl) azetidine-3-carboxylic acid]	0.172	–	10.8
C[C@H]1[C@@H](Oc2ccc(OC3(C(=O)O)CC3)cc2)O[C@@H]2O[C@@]3(C)CC[C@H]4[C@H](C)CC[C@@H]1[C@@]24OO3 [Compound 268, 1-(4-(((3R,5aS,6R,8aS, 9R,10S,12R, 12aR)-3,6,9-trimethyldeca-hydro-12H-3,12-epoxy[1,2]dioxepino[4,3-i]isochromen-10-yl)oxy)phenoxy) cyclopropane-1-carboxylic acid]	0.0489	4.28	–
C[C@H]1[C@@H](OCC(=O)N2C[C@@H]3CCC[C@@H]3[C@H]2C(=O)O)O[C@@H]2O[C@@]3(C)CC[C@H]4[C@H](C)CC[C@@H]1[C@@]24OO3 [Compound 191, (1S,3aR,6aS)-2-(2-(((3R,5aS,6R, 8aS,9R,10S,12R, 12aR)-3,6,9-trimethyldeca-hydro-12H-3,12-epoxy[1,2]dioxepino[4,3-i]isochromen-10-yl)oxy)acetyl) octahydrocyclo-penta[c]pyrrole-1-carboxlic acid]	9.73	> 20	–
C[C@H]1[C@@H](OCc2ccc(C(=O)NC34CC(C(=O)O)(C3)C4)cc2)O[C@@H]2O[C@@]3(C)CC[C@H]4[C@H](C)CC[C@@H]1[C@@]24OO3 [Compound 273, 3-(4-((((3R,5aS,6R,8aS, 9R,10S,12R, 12aR)-3,6,9-trimethyldeca-hydro-12H-3,12-epoxy[1,2]dioxepino[4,3-i]isochromen-10-yl)oxy)methyl)benzamido) bicyclo[1.1.1] pentane-1-carboxylic acid]	2.89	19.4	–
C[C@H]1[C@@H](O[C@H]2C[C@@H](C(=O)N[C@H](C(=O)O)c3ccc(C(F)(F)F)cc3)C2)O[C@@H]2O[C@@]3(C)CC[C@H]4[C@H](C)CC[C@@H]1[C@@]24OO3 [Compound 257, (S)-2-(4-(trifluoromethyl)phenyl)-2-((1R,3R)-3-(((3R,5aS,6R,8aS, 9R,10S,12R, 12aR)-3,6,9-trimethyldeca-hydro-12H-3,12-epoxy[1,2]dioxepino[4,3-i]isochromen-10-yl)oxy)cyclo-butane-1-carboxamido) acetic acid]	3.21	11.5	–
C[C@H]1[C@@H](Oc2ccc3[nH]c(C(=O)O)cc3c2)O[C@@H]2O[C@@]3(C)CC[C@H]4[C@H](C)CC[C@@H]1[C@@]24OO3 [Compound 208, 5-(((3R,5aS,6R,8aS, 9R,10S,12R, 12aR)-3,6,9-trimethyldeca-hydro-12H-3,12-epoxy[1,2]dioxepino[4,3-i]isochromen-10-yl)oxy)-1H-indole-2-carboxylic acid]	0.0693	0.37	–
C[C@H]1[C@@H](O[C@H]2C[C@@H](C(=O)NC34C5C6C3C3C4C5C63C(=O)O)C2)O[C@@H]2O[C@@]3(C)CC[C@H]4[C@H](C)CC[C@@H]1[C@@]24OO3 (stereo partly drawn) [Compound 255, 4-((1R,3s)-3-(((3R,5aS,6R,8aS, 9R,10S,12R, 12aR)-3,6,9-trimethyldeca-hydro-12H-3,12-epoxy[1,2]dioxepino[4,3-i]isochromen-10-yl)oxy)cyclo-butane-1-carboxamido) cubane-1-carboxylic acid]	2.32	> 20	–
Cc1cc(C(=O)O)cc(Cl)c1CO[C@H]1O[C@@H]2O[C@@]3(C)CC[C@H]4[C@H](C)CC[C@@H]([C@H]1C)[C@@]24OO3 [Compound 280, 3-chloro-5-methyl-4-((((3R,5aS,6R,8aS, 9R,10S,12R, 12aR)-3,6,9-trimethyldeca-hydro-12H-3,12-epoxy[1,2]dioxepino[4,3-i]isochromen-10-yl)oxy)methyl) benzoic acid]	0.246	3.22	–
C[C@H]1[C@@H](Oc2ccc(OCCC(=O)O)cc2)O[C@@H]2O[C@@]3(C)CC[C@H]4[C@H](C)CC[C@@H]1[C@@]24OO3 [Compound 250, 3-(4-(((3R,5aS,6R,8aS, 9R,10S,12R, 12aR)-3,6,9-trimethyldeca-hydro-12H-3,12-epoxy[1,2]dioxepino[4,3-i]isochromen-10-yl)oxy)phenoxy) propanoic acid]	0.0882	17.6	–
C[C@H]1[C@@H](OC[C@H]2CC[C@@H](C(=O)N3CC[C@@H](C(=O)O)C3)CC2)O[C@@H]2O[C@@]3(C)CC[C@H]4[C@H](C)CC[C@@H]1[C@@]24OO3 [Compound 263, (R)-1-((1R,4S)-4-((((3R,5aS,6R,8aS, 9R,10S,12R, 12aR)-3,6,9-trimethyldeca-hydro-12H-3,12-epoxy[1,2]dioxepino[4,3-i]isochromen-10-yl)oxy)methyl)cyclohexane-1-carbonyl) pyrrolidine-3-carboxylic acid]	0.374	16.8	–
C[C@H]1[C@@H](OCc2ccc(C(=O)N[C@@H]3CCC[C@@H](C(=O)O)C3)cc2)O[C@@H]2O[C@@]3(C)CC[C@H]4[C@H](C)CC[C@@H]1[C@@]24OO3 [Compound 290, (1R,3R)-3-(4-((((3R,5aS,6R,8aS, 9R,10S,12R, 12aR)-3,6,9-trimethyldeca-hydro-12H-3,12-epoxy[1,2]dioxepino[4,3-i]isochromen-10-yl)oxy)methyl)benzamido) cyclohexane-1-carboxylic acid]	0.0834	11.3	–

Further compounds by falling EC50 [1], results first:

EC50 [1] [µM]	IC50 [2] [µM]	SMILES	IC50 ([2]; HL-60 cells) [µM]
17.7	> 20	C[C@H]1[C@@H](Oc2ccc([C@H](N)C(=O)O)cc2)O[C@@H]2O[C@@]3(C)CC[C@H]4[C@H](C)CC[C@@H]1[C@@]24OO3 [Compound 194, (S)-2-amino-2-(4-(((3R,5aS,6R,8aS, 9R,10S,12R, 12aR)-3,6,9-trimethyldeca-hydro-12H-3,12-epoxy[1,2]dioxepino[4,3-i]isochromen-10-yl)oxy)phenyl) acetic acid]	–
17.5	> 20	C[C@H]1[C@@H](OCC2CCN(C(=O)C(=O)O)CC2)O[C@@H]2O[C@@]3(C)CC[C@H]4[C@H](C)CC[C@@H]1[C@@]24OO3 [Compound 203, 2-oxo-2-(4-((((3R,5aS,6R,8aS, 9R,10S,12R, 12aR)-3,6,9-trimethyldeca-hydro-12H-3,12-epoxy[1,2]dioxepino[4,3-i]isochromen-10-yl)oxy)methyl)piperidin-1-yl)acetic acid]	–
8.04	> 20	C[C@H]1[C@@H](O[C@H]2CC[C@@H](OCC(=O)O)CC2)O[C@@H]2O[C@@]3(C)CC[C@H]4[C@H](C)CC[C@@H]1[C@@]24OO3 [Compound 224, 2-(((1R,4s)-4-(((3R,5aS,6R,8aS, 9R,10S,12R, 12aR)-3,6,9-trimethyldeca-hydro-12H-3,12-epoxy[1,2]dioxepino[4,3-i]isochromen-10-yl)oxy)cyclohexyl)oxy)acetic acid]	–
0.422	> 20	C[C@H]1[C@H](OCC23[C@H]4[C@H]5[C@@H]2[C@H]2[C@@H]3[C@@H]4C52C(=O)O)O[C@@H]2O[C@@]3(C)CC[C@H]4[C@H](C)CC[C@@H]1[C@@]24OO3 (stereo partly drawn) [Compound 260, (2R,3R,5R,6R,7R, 8R)-4-((((3R,5aS,6R,8aS, 9R,10R,12R, 12aR)-3,6,9-trimethyldeca-hydro-12H-3,12-epoxy[1,2]dioxepino[4,3-i]isochromen-10-yl)oxy)methyl) cubane-1-carboxylic acid]	–
0.159	1.43	C[C@H]1[C@@H](Oc2ccc(Cn3cc(C(=O)O)nn3)c(Br)c2)O[C@@H]2O[C@@]3(C)CC[C@H]4[C@H](C)CC[C@@H]1[C@@]24OO3 [Compound 264, 1-(2-bromo-4-(((3R,5aS,6R,8aS,9R,10S,12R, 12aR)-3,6,9-trimethyldeca-hydro-12H-3,12-epoxy[1,2]dioxepino[4,3-i]isochromen-10-yl)oxy)benzyl)-1H-1,2,3-triazole-4-carboxylic acid]	–
0.15	0.68	C[C@H]1[C@@H](Oc2ccc(C(=O)N3[C@H](C(=O)O)C[C@@H]4CCC[C@@H]43)cc2)O[C@@H]2O[C@@]3(C)CC[C@H]4[C@H](C)CC[C@@H]1[C@@]24OO3 [Compound 207, (2S,3aS,6aS)-1-(4-(((3R,5aS,6R,8aS, 9R,10S,12R, 12aR)-3,6,9-trimethyldeca-hydro-12H-3,12-epoxy[1,2]dioxepino[4,3-i]isochromen-10-yl)oxy)benzoyl) octahydrocyclo penta[b]pyrrole-2-carboxylic acid]	–
0.111	2.84	C[C@H]1[C@@H](OCc2ccc(OCC(=O)O)cc2Cl)O[C@@H]2O[C@@]3(C)CC[C@H]4[C@H](C)CC[C@@H]1[C@@]24OO3 [Compound 223, 2-(3-chloro-4-((((3R,5aS,6R,8aS, 9R,10S,12R, 12aR)-3,6,9-trimethyldeca-hydro-12H-3,12-epoxy[1,2]dioxepino[4,3-i]isochromen-10-yl)oxy)methyl)phenoxy)acetic acid]	–
0.0474	9.1	CC(C)[C@H](NC(=O)c1ccc(O[C@H]2O[C@@H]3O[C@@]4(C)CC[C@H]5[C@H](C)CC[C@@H]([C@H]2C)[C@@]35OO4)cc1)C(=O)O [Compound 236, (4-(((3R,5aS,6R,8aS, 9R,10S,12R, 12aR)-3,6,9-trimethyldeca-hydro-12H-3,12-epoxy[1,2]dioxepino[4,3-i]isochromen-10-yl)oxy)benzoyl)-L-valine]	–
0.0259	11.7	C[C@H]1[C@@H](Oc2ccc(CC(=O)N[C@H]3CC[C@H](C(=O)O)C3)cc2)O[C@@H]2O[C@@]3(C)CC[C@H]4[C@H](C)CC[C@@H]1[C@@]24OO3 [Compound 307, (1S,3S)-3-(2-(4-(((3R,5aS,6R,8aS, 9R,10S,12R, 12aR)-3,6,9-trimethyldeca-hydro-12H-3,12-epoxy[1,2]dioxepino[4,3-i]isochromen-10-yl)oxy)phenyl)acetamido) cyclopentane-1-carboxylic acid]	–

— patent US20260242391A1 (priority 2023, published 2026)
